In ChEMBL document CHEMBL5512668, “Macrocyclic Azapeptide Nitriles: Structure-Based Discovery of Potent SARS-CoV-2 Main Protease Inhibitors as Antiviral Drugs” (J Med Chem, 2024):

Target: Procathepsin L (Homo sapiens, UniProt P07711)
Test: Inhibition of human cathepsin L using Z-Phe-Arg-pNA as substrate incubated for 60 mins
Settings: not given

Chain of Procathepsin L (P07711 whole entry): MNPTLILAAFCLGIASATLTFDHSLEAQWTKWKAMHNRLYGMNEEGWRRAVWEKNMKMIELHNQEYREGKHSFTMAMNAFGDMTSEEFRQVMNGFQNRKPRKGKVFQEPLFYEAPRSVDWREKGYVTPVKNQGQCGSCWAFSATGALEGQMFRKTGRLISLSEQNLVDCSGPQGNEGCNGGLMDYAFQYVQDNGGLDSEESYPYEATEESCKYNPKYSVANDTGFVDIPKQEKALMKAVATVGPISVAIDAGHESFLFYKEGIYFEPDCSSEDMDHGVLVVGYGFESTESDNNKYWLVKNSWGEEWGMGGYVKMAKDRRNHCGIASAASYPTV

| SMILES | Ki [nM] |
| --- | --- |
| CN(C(=O)[C@H](Cc1cccs1)NC(=O)[C@@H](NC(=O)c1cccs1)C(C)(C)C)N(C#N)Cc1cccc(Cl)c1F | 130 |
| CN(C(=O)[C@H](Cc1cccc(F)c1)NC(=O)[C@@H](NC(=O)c1cccs1)C(C)(C)C)N(C#N)Cc1cccc(Cl)c1F | 178 |
| CN(C(=O)[C@H](Cc1ccccc1F)NC(=O)[C@@H](NC(=O)c1cccs1)C(C)(C)C)N(C#N)Cc1cccc(Cl)c1F | 49.6 |
| CN(C(=O)[C@H](Cc1ccccc1)NC(=O)[C@@H](NC(=O)c1cccs1)C(C)(C)C)N(C#N)Cc1cccc(Cl)c1F | 93.5 |
| CN(C(=O)[C@H](Cc1ccccc1)NC(=O)[C@@H](NC(=O)c1cccs1)C1CCCCC1)N(C#N)Cc1ccc(Cl)cc1 | 25.1 |
| CN(C(=O)[C@H](Cc1ccccc1Cl)NC(=O)[C@@H](NC(=O)c1cccs1)C(C)(C)C)N(C#N)Cc1cccc(Cl)c1F | 56.1 |
| CN(C(=O)[C@H](Cc1cccc(Cl)c1)NC(=O)[C@@H](NC(=O)c1cccs1)C(C)(C)C)N(C#N)Cc1cccc(Cl)c1F | 163 |

Target: T1, Replicase polyprotein 1ab (Severe acute respiratory syndrome coronavirus 2, UniProt P0DTD1)
Settings: not given

| SMILES | Ki [nM] |
| --- | --- |
| CN(C(=O)[C@H](Cc1cccs1)NC(=O)[C@@H](NC(=O)c1cccs1)C(C)(C)C)N(C#N)Cc1cccc(Cl)c1F | 6.45 |
| CN1C(=O)[C@H](Cc2ccccc2)N(C(=O)CNC(=O)c2cccs2)CC2(CC2)COc2c(Cl)cccc2CN1C#N | 21.1 |
| CN(C(=O)[C@H](Cc1ccccc1)NC(=O)[C@@H](NC(=O)c1cccs1)C1CCCCC1)N(C#N)Cc1ccc(Cl)cc1 | 13 |

Target: Replicase polyprotein 1ab (Severe acute respiratory syndrome coronavirus 2) (UniProt P0DTD1)
Settings: dose 1.0 µM, time 65.0 min

| SMILES | inhibition [%] |
| --- | --- |
| CN(C(=O)[C@@H](NC(=O)[C@@H](NC(=O)c1cccs1)C(C)(C)C)C(c1ccccc1)c1ccccc1)N(C#N)Cc1cccc(Cl)c1F | 10 |
| CN(C(=O)[C@H](Cc1ccccc1)NC(=O)C1(Oc2ccc(Cl)cc2Cl)CCC1)N(C#N)Cc1ccc(Cl)cc1 | 8 |
| CN(C(=O)[C@H](Cc1ccccc1)NC(=O)[C@@H]1CCCN1C(=O)c1cccs1)N(C#N)Cc1ccc(Cl)cc1 | 13 |
| CN(C(=O)[C@@H]1Cc2ccccc2CN1C(=O)COc1ccc(Cl)cc1Cl)N(C#N)Cc1ccc(Cl)cc1 | 11 |
| CC(C)c1ccc(OCC(=O)N[C@@H](Cc2ccccc2)C(=O)N(C)N(C#N)Cc2ccc(Cl)cc2)cc1 | 21 |
| COc1cccc(NC2(C(=O)N[C@@H](Cc3ccccc3)C(=O)N(C)N(C#N)Cc3ccc(Cl)cc3)CCCC2)c1 | 12 |
| CN(C(=O)[C@@H](NC(=O)[C@@H](NC(=O)c1cccs1)C(C)(C)C)C1CCCCC1)N(C#N)Cc1cccc(Cl)c1F | 21 |
| CN(C(=O)[C@H](Cc1ccc(Cl)cc1)NC(=O)[C@@H](NC(=O)c1cccs1)C(C)(C)C)N(C#N)Cc1cccc(Cl)c1F | 6 |
| CN(C(=O)[C@@H]1Cc2ccccc2CN1C(=O)OCc1ccccc1)N(C#N)Cc1ccc(Cl)cc1 | 26 |
| CN(C(=O)[C@H](Cc1ccccc1)NC(=O)OCc1ccccc1)N(C#N)CC1CCNC1=O (stereo partly specified) | 21 |
| CN(C(=O)[C@@H]1CCCN1C(=O)[C@@H](NC(=O)c1cccs1)C(C)(C)C)N(C#N)Cc1cccc(Cl)c1F | 5 |
| CN(C(=O)[C@H](Cc1ccccc1)NC(=O)[C@@H]1Cc2ccccc2CN1C(=O)c1cccs1)N(C#N)Cc1ccc(Cl)cc1 | 21 |
| CN(C(=O)[C@H](Cc1ccccc1)NC(=O)C(C)(C)Oc1ccc(Cl)cc1Cl)N(C#N)Cc1ccc(Cl)cc1 | 17 |
| CN(C(=O)[C@H](Cc1ccccc1)NC(=O)C1(Oc2ccc(Cl)cc2Cl)CCCCC1)N(C#N)Cc1ccc(Cl)cc1 | 7 |

Target: T1, Replicase polyprotein 1ab
Settings: not given
Remark: another data set of the same source

| SMILES | IC50 [nM] |
| --- | --- |
| CN(C(=O)[C@H](Cc1cccs1)NC(=O)[C@@H](NC(=O)c1cccs1)C(C)(C)C)N(C#N)Cc1cccc(Cl)c1F | 9 |
| CN(C(=O)[C@H](Cc1cccc(F)c1)NC(=O)[C@@H](NC(=O)c1cccs1)C(C)(C)C)N(C#N)Cc1cccc(Cl)c1F | 4 |
| CN(C(=O)[C@H](Cc1ccccc1)NC(=O)OCc1ccccc1)N(C#N)Cc1ccco1 | 206 |
| COc1cccc2[nH]c(C(=O)N[C@@H](Cc3ccccc3)C(=O)N(C)N(C#N)Cc3ccc(Cl)cc3)cc12 | 23 |
| CN(C(=O)[C@H](Cc1ccccc1)NC(=O)C1(NC(=O)c2cccs2)CC1)N(C#N)Cc1ccc(Cl)cc1 | 566 |
| CN(C(=O)[C@H](Cc1ccccc1F)NC(=O)[C@@H](NC(=O)c1cccs1)C(C)(C)C)N(C#N)Cc1cccc(Cl)c1F | 19 |
| CN1C(=O)[C@H](Cc2ccccc2)N(C(=O)CNC(=O)c2cccs2)CC2(CC2)COc2c(Cl)cccc2CN1C#N | 30 |
| CN1C(=O)[C@H](Cc2ccccc2)N(C(=O)COc2ccc(Cl)cc2Cl)CCCOc2ccc(F)cc2CN1C#N | 25 |
| CN(C(=O)[C@H](Cc1ccccc1)NC(=O)OCc1ccccc1)N(C#N)Cc1ccc(Br)c(Cl)c1F | 125 |
| CN(C(=O)[C@H](Cc1ccccc1)NC(=O)[C@@H](Nc1ccc([N+](=O)[O-])cc1[N+](=O)[O-])C(C)(C)C)N(C#N)Cc1ccc(Cl)cc1 | 2250 |
| COc1cccc(OCC(=O)N[C@@H](Cc2ccccc2)C(=O)N(C)N(C#N)Cc2ccc(Cl)cc2)c1 | 1230 |
| COc1ccc(Cl)c(F)c1CN(C#N)N(C)C(=O)[C@H](Cc1ccccc1)NC(=O)OCc1ccccc1 | 392 |
| CN(C(=O)[C@H](Cc1ccccc1)NC(=O)OCc1ccccc1)N(C#N)Cc1ccccc1F | 137 |
| CN(C(=O)[C@H](Cc1ccccc1)NC(=O)OCc1ccccc1)N(C#N)Cc1cccc(F)c1 | 142 |
| CN(C(=O)[C@H](Cc1ccccc1)NC(=O)COc1ccc(F)c(F)c1)N(C#N)Cc1ccc(Cl)cc1 | 1150 |
| CN(C(=O)[C@H](Cc1ccc(F)cc1)NC(=O)[C@@H](NC(=O)c1cccs1)C(C)(C)C)N(C#N)Cc1cccc(Cl)c1F | 25 |
| CN1C(=O)[C@H](Cc2ccccc2)N(C(=O)COc2ccc(Cl)cc2Cl)CCCCOc2ccc(F)cc2CN1C#N | 42 |
| CN1C(=O)[C@H](Cc2ccccc2)NC(=O)COCCOc2ccc(F)cc2CN1C#N | 226 |
| CN(C(=O)[C@H](Cc1ccccc1)NC(=O)OCc1ccccc1)N(C#N)Cc1ccc(Br)c(F)c1 | 206 |
| CN(C(=O)[C@H](Cc1ccccc1)NC(=O)c1cc2cc(Cl)ccc2[nH]1)N(C#N)Cc1ccc(Cl)cc1 | 77 |
| CN(C(=O)[C@H](Cc1ccccc1)NC(=O)OCc1ccccc1)N(C#N)Cc1ccccc1Br | 188 |

| SMILES | IC50 [nM] |
| --- | --- |
| CN(C(=O)[C@H](Cc1ccccc1)NC(=O)OCc1ccccc1)N(C#N)Cc1ccccc1Cl | 149 |
| COc1cccc(CN(C#N)N(C)C(=O)[C@H](Cc2ccccc2)NC(=O)OCc2ccccc2)c1F | 118 |
| CN(C(=O)[C@H](Cc1ccccc1)NC(=O)OCc1ccccc1)N(C#N)Cc1ccc(Br)c(Cl)c1 | 192 |
| CN(C(=O)[C@H](Cc1ccccc1)NC(=O)OCc1ccccc1)N(C#N)Cc1c(F)cc(Br)cc1F | 81 |
| CN(C(=O)[C@H](Cc1ccccc1)NC(=O)[C@@H](NC(=O)c1cccs1)C(C)(C)C)N(C#N)Cc1cccc(Cl)c1F | 15 |
| COc1ccc(CN(C#N)N(C)C(=O)[C@H](Cc2ccccc2)NC(=O)OCc2ccccc2)cc1 | 345 |
| COc1ccc(OCC(=O)N[C@@H](Cc2ccccc2)C(=O)N(C)N(C#N)Cc2ccc(Cl)cc2)cc1 | 1230 |
| CN(C(=O)[C@H](Cc1ccccc1)NC(=O)[C@@H](NC(=O)c1cccs1)C1CCCCC1)N(C#N)Cc1ccc(Cl)cc1 | 18 |
| CN(C(=O)[C@H](Cc1ccccc1Cl)NC(=O)[C@@H](NC(=O)c1cccs1)C(C)(C)C)N(C#N)Cc1cccc(Cl)c1F | 26 |
| CN(C(=O)[C@H](Cc1ccccc1)NC(=O)COc1cccc2ccccc12)N(C#N)Cc1ccc(Cl)cc1 | 1060 |
| CCCS(=O)(=O)N[C@H](C(=O)N[C@@H](Cc1ccccc1)C(=O)N(C)N(C#N)Cc1ccc(Cl)cc1)C(C)(C)C | 156 |
| CN(C(=O)[C@H](Cc1ccccc1)NC(=O)COc1ccc2c(c1)NC(=O)CC2)N(C#N)Cc1ccc(Cl)cc1 | 960 |
| CN(C(=O)[C@H](Cc1ccccc1)NC(=O)COc1cccc(F)c1Br)N(C#N)Cc1ccc(Cl)cc1 | 1020 |
| CN(C(=O)[C@H](Cc1ccccc1)NC(=O)COc1ccc(Cl)cc1Cl)N(C#N)Cc1ccc(Cl)cc1 | 1820 |
| CN(C(=O)[C@H](Cc1ccccc1)NC(=O)OCc1ccccc1)N(C#N)Cc1ccc(F)cc1 | 294 |
| CN(C(=O)[C@H](Cc1ccccc1)NC(=O)OCc1ccccc1)N(C#N)Cc1ccc(Br)cc1F | 104 |
| CN(C(=O)[C@H](Cc1cccc(Cl)c1)NC(=O)[C@@H](NC(=O)c1cccs1)C(C)(C)C)N(C#N)Cc1cccc(Cl)c1F | 9 |
| CN(C(=O)[C@H](Cc1ccccc1)NC(=O)OCc1ccccc1)N(C#N)Cc1ccc(Br)cc1 | 200 |
| CN(C(=O)[C@H](Cc1ccccc1)NC(=O)OCc1ccccc1)N(C#N)Cc1ccc(Cl)cc1 | 260 |
| CN(C(=O)[C@H](Cc1ccccc1)NC(=O)CNc1c(F)cccc1F)N(C#N)Cc1ccc(Cl)cc1 | 987 |
| Cc1csc(C(=O)N[C@H](C(=O)N[C@@H](Cc2ccccc2)C(=O)N(C)N(C#N)Cc2ccc(Cl)cc2)C(C)(C)C)c1 | 71 |

| SMILES | IC50 [nM] |
| --- | --- |
| CN1C(=O)[C@H](Cc2ccccc2)N(C(=O)COc2ccc(Cl)cc2Cl)CCCCCOc2ccc(F)cc2CN1C#N | 48 |
| CN(C(=O)[C@H](Cc1ccccc1)NC(=O)COc1ccc(Cl)cc1)N(C#N)Cc1ccc(Cl)cc1 | 1300 |
| CN(C(=O)[C@H](Cc1ccccc1)NC(=O)[C@@H](NC(=O)C1(F)CC1)C(C)(C)C)N(C#N)Cc1ccc(Cl)cc1 | 50 |
| CN(C(=O)[C@H](Cc1ccccc1)NC(=O)OCc1ccccc1)N(C#N)Cc1ccc(Br)cc1Cl | 143 |
| CN(C(=O)[C@H](Cc1ccccc1)NC(=O)[C@@H](NC(=O)c1ccc(-c2cccs2)s1)C(C)(C)C)N(C#N)Cc1ccc(Cl)cc1 | 534 |
| CN(C(=O)[C@H](Cc1ccccc1)NC(=O)OCc1ccccc1)N(C#N)Cc1ccsc1 | 416 |
| CN(C(=O)[C@H](Cc1ccccc1)NC(=O)COc1cccc(Cl)c1)N(C#N)Cc1ccc(Cl)cc1 | 1060 |
| CN(C(=O)[C@H](Cc1ccccc1)NC(=O)COc1ccc(F)cc1)N(C#N)Cc1ccc(Cl)cc1 | 1220 |
| CN(C(=O)[C@H](Cc1ccccc1)NC(=O)CNc1ccc(F)c(F)c1)N(C#N)Cc1ccc(Cl)cc1 | 343 |
| CN(C(=O)[C@H](Cc1ccccc1)NC(=O)CCc1ccc(F)c(F)c1)N(C#N)Cc1ccc(Cl)cc1 | 1420 |
| CN(C(=O)[C@H](Cc1ccccc1)NC(=O)[C@@H](NC(=O)C(F)(F)F)C(C)(C)C)N(C#N)Cc1ccc(Cl)cc1 | 33 |
| CN(C(=O)[C@H](Cc1ccccc1)NC(=O)OCc1ccccc1)N(C#N)Cc1cc(Cl)ccc1F | 119 |
| COc1ccc(NCC(=O)N[C@@H](Cc2ccccc2)C(=O)N(C)N(C#N)Cc2ccc(Cl)cc2)c(Cl)c1 | 673 |
| CN(C(=O)[C@H](Cc1ccccc1)NC(=O)OCc1ccccc1)N(C#N)Cc1cccc(Br)c1 | 86 |
| CN(C(=O)[C@H](Cc1ccccc1)NC(=O)CNc1ccc(F)cc1F)N(C#N)Cc1ccc(Cl)cc1 | 952 |
| CN(C(=O)[C@H](Cc1ccccc1)NC(=O)OCc1ccccc1)N(C#N)Cc1cccc(Cl)c1F | 35 |
| CN(C(=O)[C@H](Cc1ccccc1)NC(=O)OCc1ccccc1)N(C#N)Cc1cccc(Cl)c1 | 88 |
| CN(C(=O)[C@H](Cc1ccccc1)NC(=O)OCc1ccccc1)N(C#N)Cc1ccc([N+](=O)[O-])cc1 | 210 |
| COc1ccc(OC)c(CN(C#N)N(C)C(=O)[C@H](Cc2ccccc2)NC(=O)OCc2ccccc2)c1 | 826 |
| COc1c(Cl)cccc1CN(C#N)N(C)C(=O)[C@H](Cc1ccccc1)NC(=O)OCc1ccccc1 | 425 |
